# Columns and labels:
# Type in all cases: functional
# [1] = test system: Staphylococcus aureus; experiment: Antimicrobial activity against methicillin-susceptible Staphylococcus aureus isolated from ICU patient respiratory tract assessed as resistant isolates by broth microdilution method
# [2] = test system: Staphylococcus epidermidis; experiment: Antimicrobial activity against methicillin-susceptible Staphylococcus epidermidis isolated from ICU patient wound assessed as resistant isolates by broth microdilution method
# [3] = test system: Escherichia coli; experiment: Antimicrobial activity against CTX-M ESBL producing Escherichia coli isolated from ICU patient urine assessed as resistant isolates by broth microdilution method
# [4] = test system: Streptococcus pneumoniae; experiment: Antimicrobial activity against penicillin-resistant Streptococcus pneumoniae isolated from ICU patient respiratory tract assessed as resistant isolates by broth microdilution method
# [5] = test system: Staphylococcus epidermidis; experiment: Antimicrobial activity against methicillin-resistant Staphylococcus epidermidis isolated from ICU patient wound assessed as resistant isolates by broth microdilution method
# [6] = test system: Staphylococcus aureus; experiment: Antimicrobial activity against methicillin-resistant Staphylococcus aureus isolated from ICU patient urine assessed as resistant isolates by broth microdilution method
# [7] = test system: Escherichia coli; experiment: Antimicrobial activity against CTX-M ESBL producing Escherichia coli assessed as resistant isolates by broth microdilution method
# [8] = test system: Haemophilus influenzae; experiment: Antimicrobial activity against Haemophilus influenzae isolated from ICU patient wound assessed as resistant isolates by broth microdilution method
# [9] = test system: Pseudomonas aeruginosa; experiment: Antimicrobial activity against carbapenem-resistant Pseudomonas aeruginosa isolated from ICU patient respiratory tract assessed as resistant isolates by broth microdilution method
# [10] = test system: Streptococcus pneumoniae; experiment: Antimicrobial activity against penicillin-resistant Streptococcus pneumoniae isolated from ICU patient wound assessed as resistant isolates by broth microdilution method
# [11] = test system: Streptococcus pneumoniae; experiment: Antimicrobial activity against penicillin-resistant Streptococcus pneumoniae assessed as resistant isolates by broth microdilution method
# [12] = test system: Staphylococcus aureus; experiment: Antimicrobial activity against methicillin-susceptible Staphylococcus aureus isolated from ICU patient urine assessed as resistant isolates by broth microdilution method
# [13] = test system: Staphylococcus aureus; experiment: Antimicrobial activity against methicillin-resistant Staphylococcus aureus assessed as resistant isolates by broth microdilution method
# [14] = test system: Staphylococcus aureus; experiment: Antimicrobial activity against methicillin-susceptible Staphylococcus aureus assessed as resistant isolates by broth microdilution method
# [15] = test system: Staphylococcus epidermidis; experiment: Antimicrobial activity against methicillin-susceptible Staphylococcus epidermidis isolated from ICU patient urine assessed as resistant isolates by broth microdilution method
# [16] = test system: Staphylococcus aureus; experiment: Antimicrobial activity against methicillin-susceptible Staphylococcus aureus isolated from ICU patient blood assessed as resistant isolates by broth microdilution method
# [17] = test system: Staphylococcus epidermidis; experiment: Antimicrobial activity against methicillin-resistant Staphylococcus epidermidis isolated from ICU patient blood assessed as resistant isolates by broth microdilution method
# [18] = test system: Staphylococcus epidermidis; experiment: Antimicrobial activity against methicillin-susceptible Staphylococcus epidermidis assessed as resistant isolates by broth microdilution method
# [19] = test system: Escherichia coli; experiment: Antimicrobial activity against CTX-M ESBL producing Escherichia coli isolated from ICU patient respiratory tract assessed as resistant isolates by broth microdilution method
# [20] = test system: Klebsiella pneumoniae; experiment: Antimicrobial activity against ESBL producing Klebsiella pneumoniae isolated from ICU patient urine assessed as resistant isolates by broth microdilution method
# [21] = test system: Haemophilus influenzae; experiment: Antimicrobial activity against Haemophilus influenzae isolated from ICU patient blood assessed as resistant isolates by broth microdilution method
# [22] = test system: Klebsiella pneumoniae; experiment: Antimicrobial activity against ESBL producing Klebsiella pneumoniae isolated from ICU patient respiratory tract assessed as resistant isolates by broth microdilution method
# [23] = test system: Haemophilus influenzae; experiment: Antimicrobial activity against Haemophilus influenzae isolated from ICU patient respiratory tract assessed as resistant isolates by broth microdilution method
# [24] = test system: Streptococcus pneumoniae; experiment: Antimicrobial activity against penicillin-resistant Streptococcus pneumoniae isolated from ICU patient blood assessed as resistant isolates by broth microdilution method
# [25] = test system: Klebsiella pneumoniae; experiment: Antimicrobial activity against ESBL producing Klebsiella pneumoniae assessed as resistant isolates by broth microdilution method
# [26] = test system: Escherichia coli; experiment: Antimicrobial activity against CTX-M ESBL producing Escherichia coli isolated from ICU patient blood assessed as resistant isolates by broth microdilution method
# [27] = test system: Staphylococcus aureus; experiment: Antimicrobial activity against methicillin-resistant Staphylococcus aureus isolated from ICU patient respiratory tract assessed as resistant isolates by broth microdilution method
# [28] = test system: Pseudomonas aeruginosa; experiment: Antimicrobial activity against carbapenem-resistant Pseudomonas aeruginosa isolated from ICU patient urine assessed as resistant isolates by broth microdilution method
# [29] = test system: Staphylococcus aureus; experiment: Antimicrobial activity against methicillin-resistant Staphylococcus aureus isolated from ICU patient blood assessed as resistant isolates by broth microdilution method
# [30] = test system: Klebsiella pneumoniae; experiment: Antimicrobial activity against ESBL producing Klebsiella pneumoniae isolated from ICU patient blood assessed as resistant isolates by broth microdilution method
# [31] = test system: Pseudomonas aeruginosa; experiment: Antimicrobial activity against carbapenem-resistant Pseudomonas aeruginosa isolated from ICU patient wound assessed as resistant isolates by broth microdilution method
# [32] = test system: Staphylococcus aureus; experiment: Antimicrobial activity against methicillin-susceptible Staphylococcus aureus isolated from ICU patient wound assessed as resistant isolates by broth microdilution method
# [33] = test system: Haemophilus influenzae; experiment: Antimicrobial activity against Haemophilus influenzae assessed as resistant isolates by broth microdilution method
# [34] = test system: Pseudomonas aeruginosa; experiment: Antimicrobial activity against carbapenem-resistant Pseudomonas aeruginosa assessed as resistant isolates by broth microdilution method
# [35] = test system: Staphylococcus epidermidis; experiment: Antimicrobial activity against methicillin-susceptible Staphylococcus epidermidis isolated from ICU patient blood assessed as resistant isolates by broth microdilution method
# [36] = test system: Staphylococcus aureus; experiment: Antimicrobial activity against methicillin-resistant Staphylococcus aureus isolated from ICU patient wound assessed as resistant isolates by broth microdilution method
# [37] = test system: Staphylococcus epidermidis; experiment: Antimicrobial activity against methicillin-resistant Staphylococcus epidermidis assessed as resistant isolates by broth microdilution method
# [38] = test system: Pseudomonas aeruginosa; experiment: Antimicrobial activity against carbapenem-resistant Pseudomonas aeruginosa isolated from ICU patient blood assessed as resistant isolates by broth microdilution method
# [39] = test system: Staphylococcus epidermidis; experiment: Antimicrobial activity against methicillin-resistant Staphylococcus epidermidis isolated from ICU patient urine assessed as resistant isolates by broth microdilution method
# [40] = test system: Staphylococcus epidermidis; experiment: Antimicrobial activity against methicillin-susceptible Staphylococcus epidermidis isolated from ICU patient respiratory tract assessed as resistant isolates by broth microdilution method
# [41] = test system: Klebsiella pneumoniae; experiment: Antimicrobial activity against ESBL producing Klebsiella pneumoniae isolated from ICU patient wound assessed as resistant isolates by broth microdilution method
# [42] = test system: Escherichia coli; experiment: Antimicrobial activity against CTX-M ESBL producing Escherichia coli isolated from ICU patient wound assessed as resistant isolates by broth microdilution method
# [43] = test system: Enterobacter cloacae; experiment: Antimicrobial activity against carbapenem-resistant Enterobacter cloacae isolated from ICU patient urine assessed as resistant isolates by broth microdilution method
# [44] = test system: Enterobacter cloacae; experiment: Antimicrobial activity against carbapenem-resistant Enterobacter cloacae isolated from ICU patient blood assessed as resistant isolates by broth microdilution method
# [45] = test system: Enterobacter cloacae; experiment: Antimicrobial activity against carbapenem-resistant Enterobacter cloacae isolated from ICU patient wound assessed as resistant isolates by broth microdilution method
# [46] = test system: Enterobacter cloacae; experiment: Antimicrobial activity against carbapenem-resistant Enterobacter cloacae isolated from ICU patient respiratory tract assessed as resistant isolates by broth microdilution method
# [47] = test system: Enterobacter cloacae; experiment: Antimicrobial activity against carbapenem-resistant Enterobacter cloacae assessed as resistant isolates by broth microdilution method
# [48] = test system: Enterococcus sp.; experiment: Antimicrobial activity against vancomycin-resistant Enterococcus sp. isolated from ICU patient blood assessed as resistant isolates by broth microdilution method
# [49] = test system: Enterococcus sp.; experiment: Antimicrobial activity against vancomycin-resistant Enterococcus sp. assessed as resistant isolates by broth microdilution method
# [50] = test system: Enterococcus sp.; experiment: Antimicrobial activity against vancomycin-resistant Enterococcus sp. isolated from ICU patient respiratory tract assessed as resistant isolates by broth microdilution method
# [51] = test system: Enterococcus sp.; experiment: Antimicrobial activity against vancomycin-resistant Enterococcus sp. isolated from ICU patient wound assessed as resistant isolates by broth microdilution method
# [52] = test system: Enterococcus sp.; experiment: Antimicrobial activity against vancomycin-resistant Enterococcus sp. isolated from ICU patient urine assessed as resistant isolates by broth microdilution method
compound,measurement,setting,value
CO/N=C(\C(=O)N[C@@H]1C(=O)N2C(C(=O)[O-])=C(C[N+]3(C)CCCC3)CS[C@H]12)c1csc(N)n1,Activity,[1],0%
same,Activity,[2],33.3%
same,Activity,[3],0.4%
same,Activity,[4],0%
same,Activity,[5],100%
same,Activity,[6],100%
same,Activity,[7],0.7%
same,Activity,[8],0%
same,Activity,[9],0%
same,Activity,[10],0%
same,Activity,[11],0%
same,Activity,[12],0%
same,Activity,[13],100%
same,Activity,[14],0%
same,Activity,[15],20%
same,Activity,[16],0%
same,Activity,[17],100%
same,Activity,[18],16.3%
same,Activity,[19],0.8%
same,Activity,[20],17.8%
same,Activity,[21],0%
same,Activity,[22],7.6%
same,Activity,[23],0%
same,Activity,[24],0%
same,Activity,[25],10.2%
same,Activity,[26],1.4%
same,Activity,[27],100%
same,Activity,[28],0%
same,Activity,[29],100%
same,Activity,[30],9.1%
same,Activity,[31],0%
same,Activity,[32],0%
same,Activity,[33],0%
same,Activity,[34],0%
same,Activity,[35],8.9%
same,Activity,[36],100%
same,Activity,[37],100%
same,Activity,[38],0%
same,Activity,[39],100%
same,Activity,[40],0%
same,Activity,[41],18.9%
NCC[C@H](O)C(=O)N[C@@H]1C[C@H](N)[C@@H](O[C@H]2O[C@H](CN)[C@@H](O)[C@H](O)[C@H]2O)[C@H](O)[C@H]1O[C@H]1O[C@H](CO)[C@@H](O)[C@H](N)[C@H]1O [AMIKACIN],Activity,[42],0%
same,Activity,[43],0%
same,Activity,[3],0%
same,Activity,[44],0%
same,Activity,[7],0%
same,Activity,[9],0%
same,Activity,[19],0%
same,Activity,[20],6.7%
same,Activity,[45],0%
same,Activity,[22],2.4%
same,Activity,[25],2.6%
same,Activity,[26],0%
same,Activity,[28],0%
same,Activity,[30],0%
same,Activity,[31],0%
same,Activity,[34],0%
same,Activity,[46],0%
same,Activity,[38],0%
same,Activity,[41],1.9%
same,Activity,[47],0%
O=C(O)c1cn(C2CC2)c2cc(N3CCNCC3)c(F)cc2c1=O [CIPROFLOXACIN],Activity,[1],7.5%
same,Activity,[2],70.8%
same,Activity,[42],24.1%
same,Activity,[3],19.8%
same,Activity,[4],2.6%
same,Activity,[5],100%
same,Activity,[6],100%
same,Activity,[7],21.1%
same,Activity,[8],0%
same,Activity,[9],4.1%
same,Activity,[10],0%
same,Activity,[11],2.1%
same,Activity,[12],20%
same,Activity,[15],80%
same,Activity,[16],6.9%
same,Activity,[17],100%
same,Activity,[18],54.7%
same,Activity,[19],21.3%
same,Activity,[20],37.8%
same,Activity,[48],58.1%
same,Activity,[21],0%
same,Activity,[22],20.8%
same,Activity,[23],0%
same,Activity,[24],0%
same,Activity,[25],23.8%
same,Activity,[26],23.3%
same,Activity,[28],0%
same,Activity,[30],24.2%
same,Activity,[31],11.5%
same,Activity,[32],8%
same,Activity,[33],0%
same,Activity,[34],4%
same,Activity,[49],53.4%
same,Activity,[35],44.6%
same,Activity,[50],46.7%
same,Activity,[36],92.6%
same,Activity,[51],50%
same,Activity,[37],100%
same,Activity,[38],3.9%
same,Activity,[52],54.7%
same,Activity,[39],100%
same,Activity,[40],100%
same,Activity,[41],28.3%
CN(C)c1cc(NC(=O)CNC(C)(C)C)c(O)c2c1C[C@H]1C[C@H]3[C@H](N(C)C)C(O)=C(C(N)=O)C(=O)[C@@]3(O)C(O)=C1C2=O [TIGECYCLINE],Activity,[1],0%
same,Activity,[42],0%
same,Activity,[43],6.3%
same,Activity,[3],0%
same,Activity,[44],0%
same,Activity,[6],0%
same,Activity,[7],0%
same,Activity,[9],0%
same,Activity,[12],0%
same,Activity,[13],0%
same,Activity,[14],0%
same,Activity,[16],0%
same,Activity,[19],0%
same,Activity,[45],0%
same,Activity,[48],0%
same,Activity,[26],0%
same,Activity,[27],0%
same,Activity,[28],2%
same,Activity,[29],0%
same,Activity,[31],3.9%
same,Activity,[32],0%
same,Activity,[34],0.4%
same,Activity,[49],0%
same,Activity,[46],0%
same,Activity,[50],0%
same,Activity,[36],0%
same,Activity,[51],0%
same,Activity,[38],0%
same,Activity,[52],0%
same,Activity,[47],0.6%
GENTAMICIN,Activity,[42],6.9%
same,Activity,[43],6.3%
same,Activity,[3],1.1%
same,Activity,[44],8.3%
same,Activity,[7],3%
same,Activity,[9],0%
same,Activity,[19],3.3%
same,Activity,[20],22.2%
same,Activity,[45],0%
same,Activity,[22],14.2%
same,Activity,[25],15.2%
same,Activity,[26],6.9%
same,Activity,[28],0%
same,Activity,[30],9.1%
same,Activity,[31],0%
same,Activity,[34],0%
same,Activity,[46],1.9%
same,Activity,[38],0%
same,Activity,[41],18.9%
same,Activity,[47],3%
